Where “and” joins values, the source holds several entries; their conditions need not be identical. Equal values may be shown once.
How the values were obtained:
[1] = Tolerability by body weight change of Hep3B cell tumor-bearing NU/NU nude mice; assay type: in vivo, mouse
Experimental: (§1) This example aimed to evaluate the in vivo efficacy and tolerability of the pharmaceutical combination of the present invention in a NU/NU nude mouse model with human hepatoma Hep3B cell subcutaneous xenografts.
(§2) Mice bearing a tumor having a volume of 100-200 mm^3 were selected, and randomized into groups (8 mice per group). The dosing volume was 10 mL/kg (in the group treated with the drug combination, the two drugs were administered individually at an interval of 4 hours), and the administration was performed by oral gavage (p.o.) every day for 20 days. The tumor volume, body weight of the animals and tumor weight were measured.
(2) The Animal's Tolerance to a Drug was Evaluated by Animal Body Weight Change.
The method for calculating the animal body weight change (%) is as follows: (Wt−W0)/W0×100%; W0: the animal's body weight at the time of grouping for administration (i.e., Day 0); Wt: the animal's body weight on day t of the test.
Body weight change in the animals tested serve as a reference indicator for determining drug tolerance.

[2] = system: human hepatoma Hep3B cells; test: In vivo efficacy on subcutaneous xenograft of human hepatoma Hep3B cells in NU/NU nude mice; conditions: compound 1.5 mg/kg, Sorafenib 30 mg/kg, combination 1.5 + 30 mg/kg; for Tumor volume (mm^3) Day 0: Day 0, at grouping (baseline)
Experimental: as §1
Human hepatoma Hep3B cells were cultured as a monolayer in vitro, and the culture conditions were EMEM culture medium supplemented with 10% Fetal Bovine Serum, and incubation in an incubator at 37° C. and 5% CO2. The cells were subcultured by treatment with routine trypsin-EDTA digestion twice a week.
0.2 mL of a cell suspension (PBS:Matrigel=1:1) containing 1×10^6 Hep3B was inoculated subcutaneously into the right flank of each mouse. After the inoculated tumor reached an average size in the range of 100-200 mm^3, the grouping of animals was performed.
(§3) 5 g of sodium carboxymethyl cellulose was weighed and placed in a 1000 mL wide-mouth bottle, 800 mL of ultrapure water was added, and the mixture was stirred to effect a solution, the volume of which was then filled up to 1000 mL, thereby obtaining the vehicle.
(§4) An appropriate amount of the 4′-thionucleoside phosphamide derivative compound in the present invention was weighed, a certain amount of the vehicle was added, and a uniform suspension was obtained after mixing.
(§5) An appropriate amount of Sorafenib was weighed, and dissolved by adding polyoxyethylene castor oil. Ethanol was added and evenly mixed, followed by addition of physiological saline, thereby obtaining a uniform suspension.
as §2
(1) The Anti-Tumor Effect was Evaluated by Measuring the Tumor Volume.
The equation for calculating the tumor volume is as follows: V=0.5a×b^2, wherein a and b respectively represent the major and minor diameters of a tumor.
RTV=Vt/V0; wherein V0 is the average tumor volume measured at the time of grouping for administration (i.e., Day 0); and Vt is the average tumor volume measured on Day t.
The anti-tumor efficacy was evaluated by tumor growth inhibition TGIvolume (%) and T/Cvolume (%). T/Cvolume (%)=TRTV/CRTV×100%; TGIvolume (%)=100%−T/Cvolume (%); wherein TRTV and CRTV are respectively RTVs of the treatment group and vehicle group at the end of the test.
TGItumor weight (%) and T/Ctumor weight (%) were calculated based on tumor weight, and were used to evaluate the tumor inhibitory effect. The equation for calculation is as follows: T/Ctumor weight(%)=WTt/WCt×100%; TGItumor weight(%)=100%−T/Ctumor weight(%);
WTt is the average tumor weight in the treatment group at the end of the test; and WCt is the average tumor weight in the vehicle group at the end of the test.
The synergism was evaluated by Jin's equation q=EA+B/(EA+EB−EA×EB), wherein EA+B represents the efficacy achieved by the combination, and EA or EB represents the efficacy achieved by individual administration. In the present invention, the efficacy indicated in the equation refers to TGI %. When q<0.85, the combination administration is considered to achieve an antagonistic effect; when q=0.85-1.15, the combination administration is considered to achieve an additive effect; and when q>1.15, the combination administration is considered to achieve a synergistic effect.

[3] = system: human hepatoma Hep3B-luc cells; test: In vivo efficacy on orthotopic liver xenograft of human hepatoma Hep3B-luc cells in BALB/c nude mice; conditions: compound 1.5 mg/kg, Sorafenib 30 mg/kg, combination 1.5 + 30 mg/kg; for The average bioluminescence value of tumor (photons/sec) Day 0: Day 0, at grouping (baseline); for T/Cfluorescence (%) / T/Ctumor weight (%) / TGIfluorescence (%) / TGItumor weight (%) / The average bioluminescence value of tumor (photons/sec) Day 28 / Tumor weight: Day 28, p.o. every day
Experimental: This example aimed to evaluate the in vivo efficacy of the pharmaceutical combination of the present invention in a BALB/c nude mouse model with human hepatoma Hep3B-luc cell orthotopic xenografts.
Human hepatoma Hep3B-luc cells were cultured as a monolayer in vitro, and the culture conditions were EMEM culture medium supplemented with 10% Fetal Bovine Serum, and incubation in an incubator at 37° C. and 5% CO2. The cells were subcultured by treatment with routine trypsin-EDTA digestion twice a week. When cell saturation was 80-90%, the number met the requirement, and the cells were harvested and counted.
20 μl of the cell suspension (PBS:Matrigel=1:1) containing about 3×10^6 Hep3B-Luc cells was injected into the left lobe of the liver of BALB/c-nude mice.
as §3, §4, §5
After inoculation, the tumor growth was assessed by real-time IVIS fluorescence imaging, and mice bearing a tumor with a bioluminescence value of about 1E+8 photons/sec were selected, and randomized into groups (10 mice per group). The dosing volume was 10 mL/kg (in the group treated with the drug combination, the two drugs were administered individually at an interval of 4 hours), and the administration was performed by oral gavage (p.o.) every day for 4 weeks. The tumor volume and tumor weight were measured and recorded by IVIS bioluminescence.
The anti-tumor effect was evaluated by measuring the bioluminescence value, which reflects the tumor volume. The relative bioluminescence value (RB) was calculated by the measured average bioluminescence value, RB=Bt/B0, wherein B0 is the average bioluminescence value measured at the time of grouping for administration (i.e., Day 0); Bt is the average bioluminescence value measured on Day t. The anti-tumor efficacy was evaluated by tumor growth inhibition TGIfluorescence (%) and T/Cfluorescence (%). The equations for calculation are as follows: T/Cfluorescence(%)=TRB/CRB×100%; TGIfluorescence(%)=100%−T/Cfluorescence(%)
wherein TRB and CRB are respectively the relative fluorescence values (RB) of the treatment group and vehicle group.
The anti-tumor efficacy was evaluated by TGIfluorescence% or T/Cfluorescence%.
The anti-tumor effect was evaluated by tumor weight according to a method same as that described in Example 1.
(3) The Criteria for Determining Synergism were the Same as in Example 1.

[4] = system: mouse colon cancer MC38 cells expressing humanized PD-L1 (hPD-L1-MC38); test: In vivo efficacy on subcutaneous xenograft of mouse colon cancer hPD-L1-MC38 cells in C57BL/6J mice; conditions: Day 28; compound 1.5 mg/kg p.o. every day, Tecentriq 10 mg/kg i.p. once every 2 days, combination 1.5 + 10 mg/kg
Experimental: This example aimed to evaluate the in vivo efficacy of the pharmaceutical combination of the present invention in a C57BL/6J mouse model with subcutaneous xenograft of mouse colon cancer hPD-L1-MC38 cells expressing humanized PD-L1.
hPD-L1-MC38 cells were cultured as a monolayer in vitro, and the culture conditions were 1640 culture medium supplemented with 10% Fetal Bovine Serum, and incubation in an incubator at 37° C. and 5% CO2. The cells were subcultured by treatment with routine trypsin-EDTA digestion three times a week.
0.1 mL of a PBS resuspension containing 2×10^5 hPD-L1-MC38 cells was inoculated subcutaneously at the right scapula of each mouse, and the grouping of animals was performed on the day of inoculation.
as §3, §4
An appropriate amount of the hPD-L1 inhibitor (Atezolizumab, trade name: Tecentriq® purchased from Roche Corporation, WHO Pharmaceutical Information (International Nonproprietary Name for Pharmaceutical Substances), Recommended INN: List 74, Vol. 29, No. 3, 2015 (see page 387)) was taken, physiological saline was added to obtain a solution of Tecentriq® at a concentration of 1 mg/mL.
C57BL/6J mice were inoculated with hPD-L1-MC38 cells, randomized into groups (8 mice per group), and treated by administration on the same day of the inoculation. The dosing volume was 10 mL/kg (in the group treated with the drug combination, the two drugs were administered individually at an interval of 4 hours). The 4′-thionucleoside phosphamide derivative compound in the present invention was administered by oral gavage (p.o.) every day for 4 weeks, and Tecentriq was administered intraperitoneally (i.p.) once every 2 days for 4 weeks. The tumor weight was measured.
The anti-tumor effect was evaluated by the measured tumor weight, and the method of measuring tumor weight and its evaluation were the same as those described in Example 1.

Molecule	weight loss ([1]; Day 20, Sorafenib 30 mg/kg p.o. every day, printed as loss) [%]	Body weight change (%) ([1]; Day 20, p.o. every day, compound 1.5 mg/kg, Sorafenib 30 mg/kg, combination 1.5 + 30 mg/kg, error range ±0.2%)	Tumor volume (mm^3) Day 0 [2] [mm^3]	T/Ctumor weight (%) ([2]; Day 20, p.o. every day)	T/Cvolume (%) ([2]; Day 20, p.o. every day)	TGItumor weight (%) ([2]; Day 20, p.o. every day)	TGIvolume (%) ([2]; Day 20, p.o. every day)	Tumor volume (mm^3) Day 20 ([2]; Day 20, p.o. every day)	Tumor weight ([2]; Day 20, p.o. every day)	The average bioluminescence value of tumor (photons/sec) Day 0 [3] [photons/sec]	T/Cfluorescence (%) [3] [%]	T/Ctumor weight (%) [3] [%]	TGIfluorescence (%) [3] [%]	TGItumor weight (%) [3] [%]	The average bioluminescence value of tumor (photons/sec) Day 28 [3] [photons/sec]	Tumor weight [3]	T/Ctumor weight (%) [4] [%]	TGItumor weight (%) [4] [%]	Tumor weight [4]
CNC(=O)c1cc(Oc2ccc(NC(=O)Nc3ccc(Cl)c(C(F)(F)F)c3)cc2)ccn1 [Sorafenib]	8.31	−8.31	137.77 ± 7.92	38.97	42.86	61.03	57.14	912.68 mm^3 and 912.68 ± 173.12 mm^3	0.76 g and 0.76 ± 0.17 g	1.09E+8	64.81	31.53	35.19	68.47	1.51E+10	1.40 g and 1.40 ± 0.82 g	–	–	–
Atezolizumab [Tecentriq]	–	–	–	–	–	–	–	–	–	–	–	–	–	–	–	–	73.12	26.88	2.72 g and 2.72 ± 0.44 g
CC(C)OC(=O)C(C)NP(=O)(OCC1SC(n2ccc(N)nc2=O)C(F)C1O)Oc1ccccc1 (centres unmarked)	–	–	137.67 ± 7.75	61.02	65.25	38.98	34.75	–	1.19 g and 1.19 ± 0.25 g	1.09E+8	103.43	77.93	−3.43	22.07	2.41E+10	3.46 g and 3.46 ± 1.17 g	95.16	4.84	3.54 g and 3.54 ± 0.41 g
